Structures are written as SMILES. Where two headings read alike, the source gives them in different places.

The experiment has as its target BTK (Homo sapiens, UniProt Q06187). Description: biochemical.
The mark [1] stands for this setting: read-out: BTK inhibition (%), 0.75 uM BTK, […] probe 3l, 15 min preincubation.

Sequence of BTK (Q06187 402-655 limits assumed): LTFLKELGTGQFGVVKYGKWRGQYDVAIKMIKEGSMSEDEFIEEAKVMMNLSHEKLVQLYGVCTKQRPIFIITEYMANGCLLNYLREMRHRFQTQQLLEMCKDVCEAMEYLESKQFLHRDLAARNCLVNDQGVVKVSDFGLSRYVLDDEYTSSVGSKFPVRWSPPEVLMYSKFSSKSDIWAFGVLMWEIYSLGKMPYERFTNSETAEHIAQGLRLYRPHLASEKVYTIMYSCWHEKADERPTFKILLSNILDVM

As to `NC(=O)C1CCCc2c1[nH]c1ccc(Cl)cc21` (stereo not drawn) [PCM-0095104], the inhibition at 10 µM under setting [1] was -3.4%.

Turning to `CN1CCCCC1Cn1cc(C(=O)c2cc([N+](=O)[O-])ccc2I)c2ccccc21` (stereo not drawn) [PCM-0095105], the inhibition at 10 µM (read-out: BTK inhibition (%)) turned out to be 22.6%.

Turning to `Cc1cc(NC(=O)Nc2ccc(N(C)C)cc2)c2cc(F)cc(F)c2n1` [PCM-0095106], the inhibition at 10 µM under setting [1] was determined as 6.2%.

As to `CCOc1ccc(Cc2cc([C@@H]3O[C@H](CO)[C@@H](O)[C@H](O)[C@H]3O)ccc2Cl)cc1` [PCM-0095107], the inhibition at 10 µM under setting [1] is -2.1%.

`COc1ccc(-c2nc3ccc(C4=NNC(=O)CC4C)cc3[nH]2)cc1` (stereo not drawn) [PCM-0095109]: the inhibition at 10 µM under setting [1] was -21.8%.

As for `COc1ccc(-c2ccc3c(N4CCOC[C@@H]4C)nc(N4CCOC[C@@H]4C)nc3n2)cc1CO` [PCM-0095110], the inhibition at 10 µM under setting [1] was -8.3%.

Regarding `CCCCCCCCCCCCc1ccc(S(=O)(=O)Nc2nncs2)cc1` [PCM-0095111], under setting [1], the inhibition at 10 µM was determined as 53.8%.

With `CCCNC(=O)Nc1ccc(Oc2ncnc3cc(OC)c(OC)cc23)cc1Cl` [PCM-0095113], the inhibition at 10 µM under setting [1] was -11%.

In the case of `COc1cc([C@@H]2c3cc4c(cc3[C@@H](O[C@@H]3O[C@@H]5CO[C@@H](c6cccs6)O[C@H]5[C@H](O)[C@H]3O)[C@H]3COC(=O)[C@H]23)OCO4)cc(OC)c1O` [PCM-0095114], the inhibition at 10 µM under setting [1] came out at 24.1%.

Regarding `CCOC(=O)O[C@]1(C(=O)OCCl)CC[C@H]2[C@@H]3CCC4=CC(=O)C=C[C@]4(C)[C@H]3[C@@H](O)C[C@@]21C` [PCM-0095115], under setting [1], the inhibition at 10 µM turned out to be 13.8%.

For the compound `C[C@H](C(=O)O)c1ccc(-c2ccccc2)c(F)c1` [PCM-0095117], under setting [1], the inhibition at 10 µM is -2.1%.

For the compound `NC(=O)c1ncn([C@@H]2O[C@H](CO)[C@@H](O)[C@H]2O)c1N` [PCM-0095118], the inhibition at 10 µM under setting [1] worked out at 4.8%.

With `Clc1ccc(C2(c3ccc(-c4cn[nH]c4)cc3)CCNCC2)cc1` [PCM-0095120], under setting [1], the inhibition at 10 µM was 6.9%.

Take `CCN1CCN(C(=O)Cc2ccc(Nc3ncc(F)c(Nc4ccc(C(=O)Nc5ccccc5Cl)cc4)n3)cc2)CC1` [PCM-0095121]: the inhibition at 10 µM under setting [1] was found to be 40.7%.

For `Cc1ccc(C(=O)N(CCCN)[C@@H](c2nc3cc(Cl)ccc3c(=O)n2Cc2ccccc2)C(C)C)cc1` [PCM-0095123], the inhibition at 10 µM under setting [1] amounted to 11.7%.

As for `Cc1ccc(NC(=O)C2(c3ccc4c(c3)OC(F)(F)O4)CC2)nc1-c1cccc(C(=O)O)c1` [PCM-0095124], the inhibition at 10 µM under setting [1] was -9.3%.

With `Cn1cncc1[C@@](N)(c1ccc(Cl)cc1)c1ccc2c(c1)c(-c1cccc(Cl)c1)cc(=O)n2C` [PCM-0095125], under setting [1], the inhibition at 10 µM was 17.9%.

For the compound `Nc1cccc2c1C(=O)N(C1CCC(=O)NC1=O)C2=O` (stereo not drawn) [PCM-0095126], the inhibition at 10 µM under setting [1] is 11%.

For `CCc1cccc(CC)c1NC(=O)N1Cc2[nH]nc(NC(=O)c3ccc(N4CCN(C)CC4)cc3)c2C1` [PCM-0095127], the inhibition at 10 µM under setting [1] came out at 65.5%.

With `O=C(NOCC(O)CO)c1cc(Br)c(F)c(F)c1Nc1ccc(I)cc1F` (stereo not drawn) [PCM-0095128], the inhibition at 10 µM under setting [1] is -19.3%.

Turning to `COc1ccc(C2(C#N)CCC(C(=O)O)CC2)cc1OC1CCCC1` (stereo not drawn) [PCM-0095129], under setting [1], the inhibition at 10 µM is -29.6%.

As to `CCOC(=O)c1ccc(C#Cc2ccc3c(c2)C(C)(C)CCS3)nc1` [PCM-0095130], under setting [1], the inhibition at 10 µM was -16.6%.

In the case of `COc1nc(C)cnc1NS(=O)(=O)c1cccnc1-c1ccc(-c2nnco2)cc1` [PCM-0095131], the inhibition at 10 µM under setting [1] worked out at 3.4%.

`C[C@@H]1CN(CC(=O)Nc2ccc3c(c2)Cc2cccc(-c4cc(=O)cc(N5CCOCC5)o4)c2S3)C[C@H](C)O1` [PCM-0095132]: the inhibition at 10 µM under setting [1] was 26.2%.

Turning to `COC(=O)N[C@H](C(=O)N[C@@H](Cc1ccccc1)[C@@H](O)CN(Cc1ccc(-c2ccccn2)cc1)NC(=O)[C@@H](NC(=O)OC)C(C)(C)C)C(C)(C)C` [PCM-0095133], the inhibition at 10 µM under setting [1] is -10.9%.

For `CC(C)c1cnn2c(NCc3ccccc3)cc(NCCCCCCN)nc12` [PCM-0095134], the inhibition at 10 µM under setting [1] was -25.5%.

As to `O=C(NCc1ccccc1)c1csc(Nc2ccncn2)n1` [PCM-0095135], the inhibition at 10 µM under setting [1] was -9%.

As to `Cc1ccc(-n2nc(C(C)(C)C)cc2NC(=O)Nc2ccc(OCCN3CCOCC3)c3ccccc23)cc1` [PCM-0095136], the inhibition at 10 µM under setting [1] was 9.7%.

On to `CCC(=O)OCC(=O)[C@@]1(OC(=O)CC)[C@@H](C)C[C@H]2[C@@H]3CCC4=CC(=O)C=C[C@]4(C)[C@@]3(F)[C@@H](O)C[C@@]21C` [PCM-0095138], for which, under setting [1], the inhibition at 10 µM is -9.3%.

`C[C@H]1C[C@H]2[C@@H]3CCC4=CC(=O)C=C[C@]4(C)[C@H]3C(=O)C[C@]2(C)[C@@]1(O)C(=O)CO` [PCM-0095139]: under setting [1], the inhibition at 10 µM came out at 29%.

For the compound `CCCCC(=O)O[C@]1(C(=O)CO)[C@@H](C)C[C@H]2[C@@H]3CCC4=CC(=O)C=C[C@]4(C)[C@@]3(F)[C@@H](O)C[C@@]21C` [PCM-0095140], the inhibition at 10 µM under setting [1] was -15.9%.

As for `CN1CCN(c2c(F)cc3c(=O)c(C(=O)O)cn4c3c2OCN4C)CC1` [PCM-0095142], the inhibition at 10 µM under setting [1] was 0%.

Turning to `COc1ccc2cc(-c3nc(-c4ccc([S+](C)[O-])cc4)[nH]c3-c3ccncc3)ccc2c1` (stereo not drawn) [PCM-0095143], the inhibition at 10 µM under setting [1] was 33.8%.

As to `O=S(=O)(NCCNC/C=C/c1ccc(Br)cc1)c1cccc2cnccc12` [PCM-0095146], the inhibition at 10 µM under setting [1] is -22.8%.

Turning to `Nc1cccc(-c2cc3c(Oc4cccc(O)c4)ncnc3[nH]2)c1` [PCM-0095147], under setting [1], the inhibition at 10 µM came to 82.1%.

In the case of `Cc1[nH]c(/C=C2\C(=O)Nc3ccccc32)c(C)c1CCC(=O)O` [PCM-0095149], under setting [1], the inhibition at 10 µM is 52.4%.

On to `COc1ccc(-n2nc(C(N)=O)c3c2C(=O)N(c2ccc(N4CCCCC4=O)cc2)CC3)cc1` [PCM-0095150], for which the inhibition at 10 µM under setting [1] was -7.8%.

Regarding `CC1=C(C(=O)Nc2cc3cn[nH]c3cc2F)C(c2ccc(C(F)(F)F)cc2)CC(=O)N1` (stereo not drawn) [PCM-0095153], the inhibition at 10 µM under setting [1] was 48.3%.

For the compound `O=C(Nc1cccc2c(=O)cc(-c3nn[nH]n3)oc12)c1ccc(OCCCCc2ccccc2)cc1` [PCM-0095155], the inhibition at 10 µM under setting [1] was 73.8%.

As for `CCC[S+]([O-])c1ccc2nc(NC(=O)OC)[nH]c2c1` (stereo not drawn) [PCM-0095157], under setting [1], the inhibition at 10 µM is 20.2%.

On to `CC1CCC(C(=O)N(c2cc(C#CC(C)(C)C)sc2C(=O)O)C2CCC(O)CC2)CC1` (stereo not drawn) [PCM-0095160], for which the inhibition at 10 µM under setting [1] turned out to be 2.3%.

With `O[C@@H](COc1cccc2ncccc12)CN1CCN(C2c3ccccc3[C@@H]3[C@H](c4ccccc42)C3(F)F)CC1` (stereo partly drawn) [PCM-0095161], the inhibition at 10 µM under setting [1] stood at 103%.

Take `COc1cc(C(C)=O)ccc1OCCCN1CCC(c2noc3cc(F)ccc23)CC1` [PCM-0095163]: under setting [1], the inhibition at 10 µM was -16.3%.

Consider `Cn1cc(/C=C/C(=O)c2cccc(F)c2)cc1/C=C/C(=O)NO` [PCM-0095164], for which, under setting [1], the inhibition at 10 µM is 34.2%.

Turning to `COc1ccc(S(=O)(=O)N(C(C)=O)c2ccccc2/C=C/c2cc[n+]([O-])cc2)cc1` [PCM-0095165], the inhibition at 10 µM under setting [1] is -18.6%.

`O=C(O)c1ccc(-n2nc(-c3ccccc3O)nc2-c2ccccc2O)cc1` [PCM-0095168]: the inhibition at 10 µM under setting [1] was determined as 36.6%.

With `CC(C)(C)C(=O)OCOP(=O)(COCCn1cnc2c(N)ncnc21)OCOC(=O)C(C)(C)C` [PCM-0095170], the inhibition at 10 µM under setting [1] was found to be 3.9%.

In the case of `CC(C)CC(=O)Nc1n[nH]c2c1CN(C(=O)C1CCN(C)CC1)C2(C)C` [PCM-0095172], the inhibition at 10 µM under setting [1] came to 17.9%.

For the compound `CC(=O)Nc1nc(C)c(-c2ccc(Cl)c(S(=O)(=O)NCCO)c2)s1` [PCM-0095173], the inhibition at 10 µM under setting [1] was -10.3%.

As for `Cc1ccc(C(=O)Nc2ccc(CN3CCN(C)CC3)c(C(F)(F)F)c2)cc1C#Cc1cnc2cccnn12` [PCM-0095174], the inhibition at 10 µM under setting [1] came to 92.4%.

With `CC(C)(C)Cn1c(N)nc2ccc(-c3[nH]c(C(C)(C)C)nc3-c3ccc(F)cc3)nc21` [PCM-0095175], the inhibition at 10 µM under setting [1] was -5.1%.

For the compound `C#CCC(Cc1cnc2nc(N)nc(N)c2n1)c1ccc(C(=O)N[C@@H](CCC(=O)O)C(=O)O)cc1` (stereo partly drawn) [PCM-0095176], the inhibition at 10 µM under setting [1] was determined as 1.6%.

Regarding `CN(C)[C@@H](CCOc1cccc2ccccc12)c1ccccc1` [PCM-0095178], the inhibition at 10 µM under setting [1] was 6.2%.

For `CC1=C(C(=O)O)N2C(=O)[C@@H](NC(=O)[C@H](N)c3ccccc3)[C@H]2SC1` [PCM-0095179], the inhibition at 10 µM under setting [1] was 4.3%.

As for `CC1(C)O[C@@H]2C[C@H]3[C@@H]4CCC5=CC(=O)C=C[C@]5(C)[C@@]4(F)[C@@H](O)C[C@]3(C)[C@]2(C(=O)CO)O1` [PCM-0095180], the inhibition at 10 µM under setting [1] was determined as 6.9%.

For the compound `CCCCCCCCCCC[C@@H](C[C@@H]1OC(=O)[C@H]1CCCCCC)OC(=O)[C@H](CC(C)C)NC=O` [PCM-0095181], the inhibition at 10 µM under setting [1] is -13.2%.

Take `CCC[C@H](N[C@@H](C)C(=O)N1[C@H](C(=O)O)C[C@@H]2CCCC[C@@H]21)C(=O)OCC` [PCM-0095182]: the inhibition at 10 µM under setting [1] is -4.3%.

Consider `CO[C@H]1/C=C/O[C@@]2(C)Oc3c(C)c(O)c4c(O)c(c5c(c4c3C2=O)=NC2(CCN(CC(C)C)CC2)N=5)NC(=O)/C(C)=C\C=C\[C@H](C)[C@H](O)[C@@H](C)[C@@H](O)[C@@H](C)[C@H](OC(C)=O)[C@@H]1C` [PCM-0095185], for which the inhibition at 10 µM under setting [1] is 7%.

Consider `NC(=O)CC[C@@H](N)C(=O)O` [PCM-0095186], for which, under setting [1], the inhibition at 10 µM was found to be 6%.

Regarding `CCCCc1nc2cc(/C=C/C(=O)NO)ccc2n1CCN(CC)CC` [PCM-0095187], the inhibition at 10 µM under setting [1] was found to be 9.7%.

`Nc1ccn(C[C@@H](CO)OCP(=O)(O)O)c(=O)n1` [PCM-0095189]: the inhibition at 10 µM under setting [1] was -12.8%.

Turning to `CN(C)c1ccc(-c2nc3ncc(Cl)c(N4CCN(CC(=O)Nc5nccs5)CC4)c3[nH]2)cc1` [PCM-0095191], the inhibition at 10 µM under setting [1] was -2.6%.

Regarding `COc1cc(Nc2nc3ccccc3nc2NS(=O)(=O)c2ccc(NC(=O)c3ccc(C)c(OC)c3)cc2)cc(OC)c1` [PCM-0095193], the inhibition at 10 µM under setting [1] is -17.9%.

Take `C=CCn1c(=O)c2cnc(Nc3ccc(N4CCN(C)CC4)cc3)nc2n1-c1cccc(C(C)(C)O)n1` [PCM-0095195]: under setting [1], the inhibition at 10 µM worked out at 37.2%.

Regarding `CC(C)(C)c1cc(NC(=O)Nc2ccc(-c3cn4c(n3)sc3cc(OCCN5CCOCC5)ccc34)cc2)no1` [PCM-0095196], under setting [1], the inhibition at 10 µM amounted to 1.4%.

Take `O=C(O)C[C@H](O)C[C@H](O)/C=C/c1c(C2CC2)nc2ccccc2c1-c1ccc(F)cc1` [PCM-0095199]: the inhibition at 10 µM under setting [1] is -36.6%.

As usually defined, the inhibition is the relative decrease from the control value, in per cent.

The values are drawn from publication PMC8041284, “Tunable Methacrylamides for Covalent Ligand Directed Release Chemistry” (Journal of the American Chemical Society, 2021).
